Entries after “also recorded” stand apart in the source; their conditions may differ.
How the values were obtained:
Antioxidant DPPH assay = settings: for antioxidant property (in words): DPPH assay, compared to ascorbic acid; for % Free Radicle Scavenging, Mean ± SE: DPPH
Procedure: The assay was performed by previously mentioned protocol. […] The volume of solution was adjusted to 200 μL using methanol. The 96-well plate was incubated at 37 °C for 25 min on shaking water bath with moderate shaking. The absorbance of reaction mixture was measured at 520 nm wavelength. The reducing percentage (RP) of the DPPH was determined by the equation: RP=100 (A0−Ac)/A0 where A0 was the control or untreated DPPH absorbance, and Ac was the test treated DPPH absorbance. Ascorbic acid was used as the standard for the DPPH assay. The assay was performed in triplicate.

hBuChE = molecular target: T1, hBuChE (Homo sapiens, UniProt P06276); test: biochemical; settings: Ellman method, triplicate, three independent runs; read-out: IC50 ± SE hBuChE
T1 construct: PTCh (derived from human plasma); from tissue; host or cells: human plasma
Procedure: (§1) Enzyme activities were determined using the Ellman spectrophotometric method. Enzyme substrates acetylthiocholine iodide (ATCh) and propionylthiocholine iodide (PTCh) were purchased from Sigma-Aldrich, Steinheim, Germany, and thiole reagent 5.5′-dithiobis-2-nitrobenzoic acid (DTNB) from Sigma-Aldrich, St. Louis, MO, USA. Donpezil and were used as reference compounds (purchased from sigma);
(§2) In initial state, ATCh (derived from human erythrocytes) and PTCh (derived from human plasma) were dissolved in water and DTNB in 0.1 M sodium phosphate buffer (pH 7.4). Sulindac analogues were dissolved in water, and all further dilutions were made in water. Final concentrations of synthetics were in the range of 0.01–200 µM, while substrates were 1.0 mM and 4.0 mM for ATCh and PTCh, respectively. The final dilution of AChE and BChE was 500 and 300 times, respectively. Briefly, 50 µL of AChE (1.00 U mL^−1) or 50 µL of BuChE (0.6 U mL^−1) and 20 µL of the test or standard compounds were incubated in 96 well plates for 30 min at room temperature. […] The IC50 values were calculated using absorbance obtained from the test and standard compounds. The assays were performed in triplicate with three independent runs.

hAChE = molecular target: T2, hAChE (Homo sapiens, UniProt P22303); test: biochemical; settings: for Selectivity Ratio = (IC50 of BuChE)/(IC50 of AChE): BuChE over AChE; for IC50: Ellman method, triplicate, three independent runs, read-out: IC50 ± SE hAChE
T2 construct: ATCh (derived from human erythrocytes); from tissue; host or cells: human erythrocytes
Procedure: as §1, §2

[1] = molecular target: AChE induced Aβ 1-42 aggregation (Homo sapiens, UniProt P22303); assay type: biochemical; settings: 10 and 20 µM, ThT, 48 h incubation
Procedure: Thioflavin T (ThT) assay was performed to determine the inhibition potential of SD-30 against AChE induced Aβ 1-42 aggregation. Aβ 1-42, purchased from Sigma, dissolved in the 10 mM phosphate buffer (PBS) of pH 7.5 to get a stock concentration of […]. The test compounds were dissolved in distilled water and further diluted with PBS. Different proportions of the Aβ 1-42: Inhibitor (1:0.5, 1:10, 1:20) were used in the ThT assay. […] The mixtures were incubated at room temperature for 48 h in the dark. […] The ThT assay was performed in triplicate and in three independent runs.

[2] = test system: SH-SY5Y neuroblastoma cell lines; test: Cell line-based toxicity study, MTT assay; settings: 72 h
Procedure: The toxicity of compound SD-30 was evaluated against SH-SY5Y neuroblastoma cell lines by the MTT assay according to the literature procedure with minor modifications. Briefly, the cell lines (density 1 × 10^5 cells/wells) were plated in 96 well plates and incubated for 24 h at 37 °C in CO2 incubator. Various concentrations of SD-30 ([…]) were added, and cells were incubated for 72 h. After that, […] of MTT reagent was added, and the cells were incubated for an additional 2 h. The obtained purple colored formazan crystals were solubilized in […] DMSO. The absorbance was measured at 570 nm, and the % cell viability was calculated. Each treatment was executed in triplicate and data are presented as percentage of the control.
Generally, in vitro cell line studies have been routinely used as these can be helpful in primary optimization and mechanistic investigations before animal-based toxicology studies. The evaluation of the neuroprotection effect of compound SD-30 ([…]) on human neuroblastoma SH-SY5Y cell lines was assessed through MTT (3-(4,5-dimethylthiazol-2-yl)-2,5- diphenyl tetrazolium bromide) assay This cell line is often used in AD due to its human origin and ease of maintenance.

Chain of AChE induced Aβ 1-42 aggregation (P22303 32-614): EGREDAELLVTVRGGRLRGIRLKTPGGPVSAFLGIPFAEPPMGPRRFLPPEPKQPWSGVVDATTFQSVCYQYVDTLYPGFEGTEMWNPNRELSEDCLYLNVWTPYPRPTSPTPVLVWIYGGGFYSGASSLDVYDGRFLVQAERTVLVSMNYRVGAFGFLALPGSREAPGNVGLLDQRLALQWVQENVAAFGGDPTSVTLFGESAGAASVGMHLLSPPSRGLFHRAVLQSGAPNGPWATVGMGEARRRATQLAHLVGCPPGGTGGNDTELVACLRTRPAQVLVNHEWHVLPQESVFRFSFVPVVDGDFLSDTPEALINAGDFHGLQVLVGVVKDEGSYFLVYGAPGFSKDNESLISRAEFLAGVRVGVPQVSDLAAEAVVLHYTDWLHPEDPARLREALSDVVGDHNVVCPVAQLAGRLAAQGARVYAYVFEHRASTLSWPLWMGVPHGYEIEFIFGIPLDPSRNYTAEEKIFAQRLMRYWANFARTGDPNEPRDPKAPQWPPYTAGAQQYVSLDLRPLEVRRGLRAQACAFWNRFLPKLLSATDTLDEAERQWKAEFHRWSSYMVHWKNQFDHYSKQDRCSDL
T2 sequence (P22303 other isoform, or with tags, fused parts or gaps): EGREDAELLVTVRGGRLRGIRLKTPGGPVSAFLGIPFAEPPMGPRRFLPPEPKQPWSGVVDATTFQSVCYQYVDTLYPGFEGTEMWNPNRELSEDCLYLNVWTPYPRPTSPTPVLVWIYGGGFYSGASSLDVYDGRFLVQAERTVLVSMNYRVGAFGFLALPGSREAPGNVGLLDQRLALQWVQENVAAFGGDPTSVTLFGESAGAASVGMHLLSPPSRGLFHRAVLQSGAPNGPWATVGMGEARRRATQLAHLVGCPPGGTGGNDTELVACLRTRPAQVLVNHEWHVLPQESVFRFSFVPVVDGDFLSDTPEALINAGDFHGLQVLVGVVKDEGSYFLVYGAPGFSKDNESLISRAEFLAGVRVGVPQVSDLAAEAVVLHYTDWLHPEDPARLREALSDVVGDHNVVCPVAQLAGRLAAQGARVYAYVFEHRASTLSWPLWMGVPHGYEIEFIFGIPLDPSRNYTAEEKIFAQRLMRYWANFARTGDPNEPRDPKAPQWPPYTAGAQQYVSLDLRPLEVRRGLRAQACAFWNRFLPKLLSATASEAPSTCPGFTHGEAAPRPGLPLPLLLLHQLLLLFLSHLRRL

Structure (SMILES) | antioxidant property (in words) (Antioxidant DPPH assay) | % Free Radicle Scavenging, Mean ± SE (Antioxidant DPPH assay; 50 µM) | % Free Radicle Scavenging, Mean ± SE (Antioxidant DPPH assay; 100 µM) | IC50 (hBuChE) | Selectivity Ratio = (IC50 of BuChE)/(IC50 of AChE) (hAChE) | IC50 (hAChE) | effect on AChE-induced Aβ1-42 aggregation (in words) [1] | concentration up to which no significant toxicity / cytotoxicity was observed [2]
CC1=C(CC(=O)NN=Cc2cccc(O)c2)c2cc(F)ccc2C1=Cc1ccc([S+](C)[O-])cc1 (stereo in doubt) [SD-24, 2-(5-fluoro-2-methyl-1-((E)-4-(methylsulfinyl)benzylidene)-1H-inden-3-yl)-N’-((E)-3-hydroxybenzylidene)acetohydrazide] | reasonable antioxidant property | 17.68 ± 0.478% | 43.61 ± 0.983% | 92.86 ± 0.066 µM | 2.30 | 40.43 ± 0.067 µM | – | –
COc1cccc(C=NNC(=O)CC2=C(C)C(=Cc3ccc([S+](C)[O-])cc3)c3ccc(F)cc32)c1 (stereo in doubt) [SD-25, 2-(5-fluoro-2-methyl-1-((E)-4-(methylsulfinyl)benzylidene)-1H-inden-3-yl)-N’-((E)-3-methoxybenzylidene) acetohydrazide] | – | 14.00 ± 0.345% | 40.95 ± 1.101% | > 1000 µM | – | > 1000 µM | – | –
CC1=C(CC(=O)NN=Cc2ccc(O)cc2)c2cc(F)ccc2C1=Cc1ccc([S+](C)[O-])cc1 (stereo in doubt) [SD-30, 2-(5-fluoro-2-methyl-1-((E)-4-(methylsulfinyl)benzylidene)-1H-inden-3-yl)-N’-((E)-4-hydroxybenzylidene)acetohydrazide] | reasonable antioxidant properties; also recorded: reasonable antioxidant property | 17.37 ± 0.988% | 45.39 ± 1.036% | 48.55 ± 0.136 µM | 3.50 | 13.9 ± 0.163 µM | effectively inhibited AChE-induced Aβ aggregation; also recorded: effective on Aβ1-42 aggregation; also recorded: concentration-dependent decrease in the Aβ aggregation | up to 30 mM
COc1ccccc1C=NNC(=O)CC1=C(C)C(=Cc2ccc([S+](C)[O-])cc2)c2ccc(F)cc21 (stereo in doubt) [SD-31, 2-(5-fluoro-2-methyl-1-((E)-4-(methylsulfinyl)benzylidene)-1H-inden-3-yl)-N’-((E)-2-methoxybenzylidene) acetohydrazide] | – | 12.24 ± 0.222% | 39.39 ± 0.860% | > 1000 µM | – | 733.16 ± 0.143 µM | – | –
O=C1O[C@H]([C@@H](O)CO)C(O)=C1O [Ascorbic acid, reference compound] | – | 42.66 ± 1.491% | 76.76 ± 0.708% | – | – | – | – | –
CC1=C(CC(=O)NN=Cc2c(O)cccc2O)c2cc(F)ccc2/C1=C\c1ccc([S+](C)[O-])cc1 (centres unmarked) [SD-40] | – | 28.67 ± 0.422% | 63.42 ± 0.831% | 286.01 ± 0.143 µM | 2.63 | 108.9 ± 0.142 µM | – | –
CC1=C(CC(=O)NN=Cc2cccc(O)c2O)c2cc(F)ccc2/C1=C\c1ccc([S+](C)[O-])cc1 (centres unmarked) [SD-42] | reasonable antioxidant property | 30.43 ± 0.299% | 64.98 ± 1.071% | 264.33 ± 0.068 µM | 2.86 | 92.44 ± 0.106 µM | – | –

From PMC9860787, “Indene-Derived Hydrazides Targeting Acetylcholinesterase Enzyme in Alzheimer’s: Design, Synthesis, and Biological Evaluation” (Pharmaceutics, 2022)
